Structures can show the parent of a compound that is named as a salt.
What was measured:
[1] = Acute intravenous toxicity in mice, products of Examples 10 to 13 (LD50); conditions: mouse, in vivo, i.v., group of male and female mice
Excerpt: (a) determined on a group of male and female mice,
(b) determined on a group consisting solely of female mice.

adrenergic receptors [2] = assay: Inhibition/reversal of tension effects of adrenalin, intravenous (products of Examples 11 to 13); type: in vivo; conditions: i.v.
Procedure: the doses of CRL 40,150 from 0.5 to 4 mg/kg being administered successively.

dogs [3] = assay: Hypotensive effect in dogs anaesthetised with Nembutal; type: in vivo
Excerpt: This hypotension manifests itself especially in a decrease in the differential pressure, the lowering of the diastolic pressure being greater than that of the systolic pressure.

dogs [4] = assay: Intraduodenal administration to dogs anaesthetised with Nembutal (product of Example 11), Experiments A to D; type: in vivo
Procedure: Complementary experiments carried out on anaesthetised dogs have been given below for the product of Example 11 administered intraduodenally (ID).
(§1) The product was investigated by intraduodenal administration to dogs anaesthetised with Nembutal, in four experiments, A B C and D.
The arterial pressure is not altered. The pulse rate increases by at most 20% after 15 minutes and then decreases slowly (+ 14% after 30 minutes).
After 1 hour, the femoral flow rate has still been increased by 100% (from 36 to 72 ml/minute).
The α-receptors of the animal are already blocked. […] The vertebral flow rate is 20 ml/minute.
15 hr. […] 15 hr. […] 16 hr. […] 16 hr. 23 min. Propanolol: 0.3 mg/kg administered intravenously. […] The arterial pressure increases by approximately 10%. […] The pulse rate increases by 20 to 33%. […] The femoral flow rate is increased by only 25%.

adrenergic receptors [5] = assay: Tension effects of adrenalin after intraduodenal product of Example 11; type: in vivo, dogs; conditions: Experiment A
Excerpt: as §1

adrenalin = assay: Effect on the amines and reflexes: adrenalin; conditions: in vivo
Excerpt: (§2) In Table III below, the effects of the products on the amines and the reflexes have been summarised.

acetylcholine = assay: Effect on the amines and reflexes: acetylcholine; conditions: in vivo
Excerpt: as §2

peripheral vagus = assay: Effect on the amines and reflexes: stimulation of the peripheral vagus; conditions: in vivo
Excerpt: as §2

central vagus = assay: Effect on the amines and reflexes: stimulation of the central vagus; conditions: in vivo
Excerpt: as §2

[6] = tested on: reflex relating to occlusion of the carotids; assay: Effect on the amines and reflexes: occlusion of the carotids; conditions: in vivo
Excerpt: as §2

[7] = Experiment A, 15 and 30 mg/kg ID
[8] = Experiment B, second administration 30 mg/kg ID, after 1 hour
[9] = Experiment B, second administration 30 mg/kg ID, after 2 hours
[10] = Experiment B, third administration 30 mg/kg ID
[11] = Experiment D, second 15 mg/kg ID

## COc1cc(OC)cc(OCCN2CCN(CC3COc4ccccc4O3)CC2)c1 (centres unmarked) [Example 11, 1-[2-(1,4-Benzodioxanyl)-methyl]-4-[2-(3,5-dimethoxyphenoxy)-ethyl]-piperazine dihydrochloride]
[1]
  LD50: 60 mg/kg
Adrenergic receptors [2]
  dose from which tension effects of adrenalin are inhibited and then reversed: ≥ 0.37 mg/kg
Dogs [3]
  hypotension: 40%
Dogs [4]; [7]
  arterial pressure: not altered
  effect on the femoral flow rate: no effect
  effect on the vertebral flow rate: no effect
Dogs [4]; Experiment A, after 15 minutes
  increase in pulse rate: at most 20%
Dogs [4]; Experiment A, after 30 minutes
  increase in pulse rate: 14%
Dogs [4]; Experiment B, 15 mg/kg ID, 5 minutes
  increase in femoral flow rate: 134%
Dogs [4]; Experiment B, 15 mg/kg ID, 15 minutes
  increase in femoral flow rate: 194%
Dogs [4]; Experiment B, 15 mg/kg ID, 1 hour
  increase in femoral flow rate: 100%
Dogs [4]; Experiment B, 15 mg/kg ID, 1 hour, from 36
  femoral flow rate: 72 mL/min
Dogs [4]; Experiment B, ID
  increase in differential arterial pressure: 30%
  increase in the pulse rate: ≤ 30%
Dogs [4]; Experiment B, ID, at most
  decrease in average arterial pressure: ≤ 18%
Dogs [4]; Experiment B, ID, lowest, from 165
  average arterial pressure: 135 mm Hg
Dogs [4]; [8]
  femoral flow rate: 104 mL/min
  increase in femoral flow rate: 184%
Dogs [4]; [9]
  femoral flow rate: 92 mL/min
  increase in femoral flow rate: 156%
Dogs [4]; Experiment B, second administration 30 mg/kg ID, first 45 minutes
  change in femoral flow rate: does not change the flow rate further
Dogs [4]; [10]
  femoral flow rate: 108 mL/min
  increase in femoral flow rate: 200%
Dogs [4]; Experiment C, 15 mg/kg ID
  effect on the femoral flow rate: zero
Dogs [4]; Experiment C, 15 mg/kg ID, after 60 minutes
  increase in vertebral flow rate: 35%
Dogs [4]; Experiment C, 15 mg/kg ID, after 60 minutes, from 20
  vertebral flow rate: 27 mL/min
Dogs [4]; Experiment D, 15 mg/kg ID
  average pressure: remaining constant
  differential pressure: large increase in the differential pressure
  increase in arterial pressure: approximately 10%
Dogs [4]; Experiment D, 15 mg/kg ID, 10 minutes
  increase in femoral flow rate: 170%
Dogs [4]; Experiment D, 15 mg/kg ID, 10 minutes, from 48
  femoral flow rate: 130 mL/min
Dogs [4]; Experiment D, 15 mg/kg ID, 30 minutes
  increase in femoral flow rate: 100%
Dogs [4]; Experiment D, 15 mg/kg ID, 75 minutes
  increase in femoral flow rate: 50%
Dogs [4]; Experiment D, 15 mg/kg ID, first administration, at most
  increase in vertebral flow rate: ≤ 16%
Dogs [4]; [11]
  increase in femoral flow rate: 25%
  vertebral flow rate: 70 mL/min
Dogs [4]; Experiment D, second 15 mg/kg ID, after 15 minutes
  increase in vertebral flow rate: 94%
Adrenergic receptors [5]; 5 minutes after the first dose (15 mg/kg ID)
  tension effects of adrenalin: reversed
Adrenergic receptors [5]; ID
  passage through the intestinal barrier: passed through the intestinal barrier
adrenalin
  Effect on the amines and reflexes: adrenalin: reversal
acetylcholine
  Effect on the amines and reflexes: acetylcholine: no change
Peripheral vagus
  Effect on the amines and reflexes: stimulation of the peripheral vagus: not changed
Central vagus
  Effect on the amines and reflexes: stimulation of the central vagus: not changed
[6]
  Effect on the amines and reflexes: reflex relating to occlusion of the carotids: reduced

Source: US3959283A, “Amino-derivatives of 1,4-benzodioxan” (Laboratoire L. Lafon, priority 1974, dated 1976)
